Source: the supplement of paper PMC10307832

Assays:
Experiment in all cases: relative viability (nuclei count vs DMSO), 5 days (fraction); higher = more cells survive
PAC-1 + Luminespib = compound: C=CCc1cccc(/C=N/NC(=O)CN2CCN(Cc3ccccc3)CC2)c1O [PAC-1] + CCNC(=O)c1noc(-c2cc(C(C)C)c(O)cc2O)c1-c1ccc(CN2CCOCC2)cc1 [Luminespib] (partner 0.01 µM)
Summary of the method: (§1)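 Relative viability is defined as nuclei in treated wells over nuclei in vehicle wells. Duplicate plates were run and medians reported. Lung cancer cell lines in 1536-well plates were dosed by pin tool one day after seeding, with one drug or with a fixed anchor-drug dose plus five library-drug doses (not always all listed) in √10 steps, and nuclei were counted after 5 days.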

BMX-IN-1 + Bortezomib = compound: C=CC(=O)Nc1cc(-n2c(=O)ccc3cnc4ccc(-c5ccc(NS(C)(=O)=O)cc5)cc4c32)ccc1C [BMX-IN-1] + CC(C)C[C@H](NC(=O)[C@H](Cc1ccccc1)NC(=O)c1cnccn1)B(O)O [Bortezomib] (partner 0.002 µM)
Summary of the method: as §1

BMX-IN-1 + Luminespib = compound: C=CC(=O)Nc1cc(-n2c(=O)ccc3cnc4ccc(-c5ccc(NS(C)(=O)=O)cc5)cc4c32)ccc1C [BMX-IN-1] + CCNC(=O)c1noc(-c2cc(C(C)C)c(O)cc2O)c1-c1ccc(CN2CCOCC2)cc1 [Luminespib] (partner 0.01 µM)
Summary of the method: as §1

Ibrutinib + Pemetrexed = compound: C=CC(=O)N1CCC[C@@H](n2nc(-c3ccc(Oc4ccccc4)cc3)c3c(N)ncnc32)C1 [Ibrutinib] + Nc1nc2[nH]cc(CCc3ccc(C(=O)N[C@@H](CCC(=O)O)C(=O)O)cc3)c2c(=O)[nH]1 [Pemetrexed] (partner 0.2 µM)
Summary of the method: as §1

Cell Line	relative viability (PAC-1 + Luminespib; first compound 0.02 µM)	relative viability (PAC-1 + Luminespib; first compound 0.06325 µM)	relative viability (PAC-1 + Luminespib; first compound 0.2 µM)	relative viability (PAC-1 + Luminespib; first compound 2 µM)	relative viability (BMX-IN-1 + Bortezomib; first compound 0.02 µM)	relative viability (BMX-IN-1 + Bortezomib; first compound 0.2 µM)	relative viability (BMX-IN-1 + Bortezomib; first compound 0.6325 µM)	relative viability (BMX-IN-1 + Bortezomib; first compound 2 µM)	relative viability (BMX-IN-1 + Luminespib; first compound 0.02 µM)	relative viability (BMX-IN-1 + Luminespib; first compound 0.2 µM)	relative viability (BMX-IN-1 + Luminespib; first compound 0.6325 µM)	relative viability (BMX-IN-1 + Luminespib; first compound 2 µM)	relative viability (Ibrutinib + Pemetrexed; first compound 0.005 µM)	relative viability (Ibrutinib + Pemetrexed; first compound 0.01581 µM)	relative viability (Ibrutinib + Pemetrexed; first compound 0.05 µM)	relative viability (Ibrutinib + Pemetrexed; first compound 0.1581 µM)	relative viability (Ibrutinib + Pemetrexed; first compound 0.5 µM)
NCI-H661	0.951	0.882	0.821	0.736	0.86	0.785	0.841	0.685	1	0.916	1.03	0.863	0.868	0.927	0.89	0.902	0.8
NCI-H1915	0.792	0.845	0.68	0.779	1.31	1.14	1.08	0.994	0.912	1.14	0.785	0.751	0.532	0.599	0.587	0.513	0.715
BEN	0.594	0.282	0.535	0.273	0.808	0.95	0.7	0.772	0.417	0.332	0.328	0.364	0.489	0.757	0.637	0.469	0.785
H3255	0.905	0.852	0.672	0.804	0.916	0.466	0.99	0.732	0.851	0.907	1.02	0.927	0.511	0.553	0.456	0.557	0.407
NCI-H1437	1.15	1.13	1.06	0.907	0.567	0.472	0.586	0.456	1.41	1.23	1.15	1.16	0.366	0.33	0.361	0.296	0.408
ChaGo-K-1	0.645	0.737	0.645	0.715	1.08	1.1	1.31	1.17	0.665	0.708	0.536	0.778	0.254	0.263	0.264	0.261	0.271
NCI-H1755	0.482	0.306	0.502	0.563	0.971	1	1	0.987	0.525	0.387	0.502	0.597	0.42	0.481	0.475	0.456	0.516
SK-LU-1	0.216	0.375	0.223	0.191	1.52	1.47	1.22	1.07	0.172	0.194	0.189	0.196		0.975	1.08	1	1.09
HOP-62	0.954	0.835	0.852	0.942	0.934	0.851	0.769	0.6	1.08	1.06	0.891	0.926	0.415	0.32	0.434	0.446	0.879
